Source: PMC8285493 (Nature Communications, 2021)

Legend:
Test in all cases: biochemical
Parameters in all cases: PDE enzyme inhibition, 3H-cAMP / 3H-cGMP scintillation proximity assay
PDE10A = biological target: T1, PDE10A (Homo sapiens, UniProt Q9Y233)
T1 construct: full-length, Sf9 cell-free extract
Description: (§1) PDE activity assays were performed as previously described. Briefly, cell-free extracts were prepared from Sf9 insect cells recombinantly expressing full-length human PDEs (PDE2A, 3A, 3B, 4B, 7B, 8A, 9A, 10A, 11A). PDE5 was purified from human platelets by homogenization (Microfluidizer, 800 bar, 3 passages), centrifugation (75,000 × g, 60 min, 4 °C), and ion exchange chromatography of the supernatant on a Mono Q 10/10 column (linear NaCl gradient, eluted with 0.2–0.3 M NaCl in a buffer containing 20 mM Hepes pH 7.2 and 2 mM MgCl2). Fractions containing PDE5 activity were pooled and stored at −80 °C. PDE6 was purified from rod outer segments of bovine retinae by Dr. Körschen, Forschungszentrum Jülich, Germany[34]. Bovine PDE1 was purchased from Sigma-Aldrich (P9529, Taufkirchen, Germany). Enzyme inhibition studies were carried out using the commercially available 3H-cAMP and 3H-cGMP Scintillation Proximity Assay (SPA) systems (RPNQ0150, Perkin-Elmer, Rodgau, Germany).

PDE11A = biological target: T2, PDE11A (Homo sapiens, UniProt Q9HCR9)
T2 construct: full-length, Sf9 cell-free extract
T2 sequence (Q9HCR9 whole entry): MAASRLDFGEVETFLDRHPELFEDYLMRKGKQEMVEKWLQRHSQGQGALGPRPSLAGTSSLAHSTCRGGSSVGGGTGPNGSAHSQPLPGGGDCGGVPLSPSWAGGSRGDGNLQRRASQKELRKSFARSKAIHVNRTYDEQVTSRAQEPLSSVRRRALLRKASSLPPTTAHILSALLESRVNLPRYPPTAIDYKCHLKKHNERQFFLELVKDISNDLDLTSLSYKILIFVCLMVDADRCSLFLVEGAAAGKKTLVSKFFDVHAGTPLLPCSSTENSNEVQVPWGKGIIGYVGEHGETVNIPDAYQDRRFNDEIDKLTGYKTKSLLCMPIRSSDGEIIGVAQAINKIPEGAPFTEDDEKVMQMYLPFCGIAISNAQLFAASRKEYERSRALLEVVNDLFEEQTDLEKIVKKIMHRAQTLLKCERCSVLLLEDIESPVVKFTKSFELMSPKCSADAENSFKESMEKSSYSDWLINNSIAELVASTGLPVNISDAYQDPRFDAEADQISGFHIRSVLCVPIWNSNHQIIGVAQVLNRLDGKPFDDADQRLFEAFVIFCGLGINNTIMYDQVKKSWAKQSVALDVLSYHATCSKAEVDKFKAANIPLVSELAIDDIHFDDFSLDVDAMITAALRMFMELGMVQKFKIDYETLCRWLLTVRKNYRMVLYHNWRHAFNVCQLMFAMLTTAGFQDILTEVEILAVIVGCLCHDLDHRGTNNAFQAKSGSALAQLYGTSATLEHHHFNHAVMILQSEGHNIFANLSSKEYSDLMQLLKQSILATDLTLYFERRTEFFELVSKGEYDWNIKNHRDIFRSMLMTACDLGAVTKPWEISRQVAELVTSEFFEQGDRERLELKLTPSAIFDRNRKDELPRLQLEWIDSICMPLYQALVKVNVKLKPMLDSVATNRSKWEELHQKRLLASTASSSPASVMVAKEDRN
Description: as §1

PDE2A = biological target: T3, PDE2A (Homo sapiens, UniProt O00408)
T3 construct: full-length, Sf9 cell-free extract
Description: as §1

PDE3A = biological target: T4, PDE3A (Homo sapiens, UniProt Q14432)
T4 construct: full-length, Sf9 cell-free extract
T4 sequence (Q14432 whole entry): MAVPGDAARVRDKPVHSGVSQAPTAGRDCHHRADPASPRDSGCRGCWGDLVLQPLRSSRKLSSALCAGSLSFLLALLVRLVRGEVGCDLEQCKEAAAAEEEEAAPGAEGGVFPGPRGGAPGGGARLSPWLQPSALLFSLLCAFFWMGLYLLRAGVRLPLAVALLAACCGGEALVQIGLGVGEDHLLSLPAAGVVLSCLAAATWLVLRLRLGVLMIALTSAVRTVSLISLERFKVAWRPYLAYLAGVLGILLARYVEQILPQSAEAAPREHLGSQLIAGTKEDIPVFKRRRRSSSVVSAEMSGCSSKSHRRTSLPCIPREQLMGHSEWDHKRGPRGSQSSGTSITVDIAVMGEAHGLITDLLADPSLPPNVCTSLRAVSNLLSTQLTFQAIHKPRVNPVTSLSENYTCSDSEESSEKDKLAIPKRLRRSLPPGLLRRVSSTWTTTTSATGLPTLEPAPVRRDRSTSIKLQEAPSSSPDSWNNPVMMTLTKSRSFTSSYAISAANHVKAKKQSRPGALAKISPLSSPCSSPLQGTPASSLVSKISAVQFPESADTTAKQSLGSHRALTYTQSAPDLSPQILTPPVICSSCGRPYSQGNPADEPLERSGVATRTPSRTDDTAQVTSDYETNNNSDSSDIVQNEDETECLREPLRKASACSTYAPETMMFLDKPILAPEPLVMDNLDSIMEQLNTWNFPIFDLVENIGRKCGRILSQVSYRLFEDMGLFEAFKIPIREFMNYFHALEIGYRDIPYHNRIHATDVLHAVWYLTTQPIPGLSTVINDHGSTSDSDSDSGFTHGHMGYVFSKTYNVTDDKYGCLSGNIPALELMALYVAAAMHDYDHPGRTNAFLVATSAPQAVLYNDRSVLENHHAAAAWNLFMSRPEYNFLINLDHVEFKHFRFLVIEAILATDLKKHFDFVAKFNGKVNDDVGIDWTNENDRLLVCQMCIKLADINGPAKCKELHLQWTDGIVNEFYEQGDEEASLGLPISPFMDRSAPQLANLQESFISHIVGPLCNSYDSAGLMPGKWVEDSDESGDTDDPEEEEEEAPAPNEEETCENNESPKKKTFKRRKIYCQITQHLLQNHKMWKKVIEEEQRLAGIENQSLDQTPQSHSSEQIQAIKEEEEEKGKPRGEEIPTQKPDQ
Description: as §1

PDE3B = biological target: T5, PDE3B (Homo sapiens, UniProt Q13370)
T5 construct: full-length human PDE3B, Sf9 cell-free extract
T5 sequence (Q13370 whole entry): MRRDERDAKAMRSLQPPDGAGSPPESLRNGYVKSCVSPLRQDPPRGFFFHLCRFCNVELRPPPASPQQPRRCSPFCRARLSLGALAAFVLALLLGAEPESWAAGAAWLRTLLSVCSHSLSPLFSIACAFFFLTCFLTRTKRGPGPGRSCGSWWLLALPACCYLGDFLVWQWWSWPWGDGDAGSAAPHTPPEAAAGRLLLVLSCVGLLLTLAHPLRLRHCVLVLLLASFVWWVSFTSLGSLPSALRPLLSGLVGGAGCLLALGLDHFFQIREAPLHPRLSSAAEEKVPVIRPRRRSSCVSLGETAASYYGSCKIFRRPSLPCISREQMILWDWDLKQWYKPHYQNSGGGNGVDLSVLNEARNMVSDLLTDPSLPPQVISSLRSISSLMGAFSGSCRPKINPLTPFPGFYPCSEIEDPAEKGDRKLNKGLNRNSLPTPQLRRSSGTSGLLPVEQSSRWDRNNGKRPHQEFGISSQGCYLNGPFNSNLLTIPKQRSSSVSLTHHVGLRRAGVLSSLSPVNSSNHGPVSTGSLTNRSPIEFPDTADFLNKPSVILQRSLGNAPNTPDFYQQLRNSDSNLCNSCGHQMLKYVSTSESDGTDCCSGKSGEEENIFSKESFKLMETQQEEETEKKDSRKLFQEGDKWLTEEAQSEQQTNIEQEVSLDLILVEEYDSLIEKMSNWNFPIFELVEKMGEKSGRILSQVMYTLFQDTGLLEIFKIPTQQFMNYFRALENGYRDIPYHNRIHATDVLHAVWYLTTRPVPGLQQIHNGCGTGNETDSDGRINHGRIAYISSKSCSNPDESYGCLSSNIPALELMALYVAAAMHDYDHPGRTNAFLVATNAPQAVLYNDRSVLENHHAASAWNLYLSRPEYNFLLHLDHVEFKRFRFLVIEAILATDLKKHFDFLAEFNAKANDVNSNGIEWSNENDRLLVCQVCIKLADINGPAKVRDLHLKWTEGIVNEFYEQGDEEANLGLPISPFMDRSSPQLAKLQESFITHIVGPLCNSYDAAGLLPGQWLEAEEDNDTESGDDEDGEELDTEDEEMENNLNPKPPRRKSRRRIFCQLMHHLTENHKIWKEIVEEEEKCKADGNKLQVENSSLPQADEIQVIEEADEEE
Description: as §1

PDE5 = biological target: T6, PDE5 (Homo sapiens, UniProt O76074)
T6 construct: gene PDE5A; native, purified from human platelets
Description: as §1

PDE6 = biological target: T7, PDE6 (Bos taurus, UniProt P11541+P23439)
T7 construct: gene PDE6A; native, purified from rod outer segments of bovine retinae
T7 sequence (P11541 1-859): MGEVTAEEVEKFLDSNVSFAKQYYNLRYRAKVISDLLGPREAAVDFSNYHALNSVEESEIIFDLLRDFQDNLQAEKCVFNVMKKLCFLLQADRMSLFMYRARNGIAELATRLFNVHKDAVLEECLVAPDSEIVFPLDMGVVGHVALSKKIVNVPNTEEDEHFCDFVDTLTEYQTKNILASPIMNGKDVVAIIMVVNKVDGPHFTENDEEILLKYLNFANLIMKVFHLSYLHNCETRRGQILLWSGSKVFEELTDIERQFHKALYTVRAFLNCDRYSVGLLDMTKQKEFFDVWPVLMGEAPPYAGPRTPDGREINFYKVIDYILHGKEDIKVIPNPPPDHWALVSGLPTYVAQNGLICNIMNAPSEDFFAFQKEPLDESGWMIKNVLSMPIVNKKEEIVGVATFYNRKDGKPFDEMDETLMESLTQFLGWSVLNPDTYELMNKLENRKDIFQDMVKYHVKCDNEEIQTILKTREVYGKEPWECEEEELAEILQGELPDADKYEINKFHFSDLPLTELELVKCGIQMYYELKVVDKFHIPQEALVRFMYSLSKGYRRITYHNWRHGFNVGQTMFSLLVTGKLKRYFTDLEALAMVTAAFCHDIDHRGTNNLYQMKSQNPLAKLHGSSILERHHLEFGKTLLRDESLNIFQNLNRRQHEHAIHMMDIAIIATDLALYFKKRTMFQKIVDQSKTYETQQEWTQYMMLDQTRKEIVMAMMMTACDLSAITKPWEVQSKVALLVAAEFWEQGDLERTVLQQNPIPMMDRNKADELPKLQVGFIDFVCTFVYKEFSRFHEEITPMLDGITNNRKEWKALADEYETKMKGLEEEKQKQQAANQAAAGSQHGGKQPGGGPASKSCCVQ
T7 sequence (P23439 1-853): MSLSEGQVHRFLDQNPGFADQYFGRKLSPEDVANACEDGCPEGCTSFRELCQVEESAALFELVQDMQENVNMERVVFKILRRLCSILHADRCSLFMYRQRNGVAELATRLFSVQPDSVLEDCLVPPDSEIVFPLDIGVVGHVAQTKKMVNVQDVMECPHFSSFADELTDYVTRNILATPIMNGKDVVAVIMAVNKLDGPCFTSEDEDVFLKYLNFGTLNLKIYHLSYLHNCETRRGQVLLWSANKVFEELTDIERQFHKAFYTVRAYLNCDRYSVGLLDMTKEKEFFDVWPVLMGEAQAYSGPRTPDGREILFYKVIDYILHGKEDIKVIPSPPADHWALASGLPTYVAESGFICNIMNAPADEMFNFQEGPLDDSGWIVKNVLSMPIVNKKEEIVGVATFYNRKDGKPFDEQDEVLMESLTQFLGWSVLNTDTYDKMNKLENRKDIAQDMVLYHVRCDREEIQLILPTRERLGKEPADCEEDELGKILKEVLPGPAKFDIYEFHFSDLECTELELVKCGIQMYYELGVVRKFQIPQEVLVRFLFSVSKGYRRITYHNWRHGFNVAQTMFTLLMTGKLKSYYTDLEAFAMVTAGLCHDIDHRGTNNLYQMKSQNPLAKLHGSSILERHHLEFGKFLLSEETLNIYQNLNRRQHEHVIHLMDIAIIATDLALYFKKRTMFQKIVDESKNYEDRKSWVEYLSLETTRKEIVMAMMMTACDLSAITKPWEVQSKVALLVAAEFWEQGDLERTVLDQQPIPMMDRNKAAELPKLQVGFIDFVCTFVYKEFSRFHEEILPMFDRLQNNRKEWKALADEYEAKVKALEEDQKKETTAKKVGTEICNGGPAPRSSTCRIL
Description: as §1

PDE7B = biological target: T8, PDE7B (Homo sapiens, UniProt Q9NP56)
T8 construct: full-length, Sf9 cell-free extract
T8 sequence (Q9NP56 whole entry): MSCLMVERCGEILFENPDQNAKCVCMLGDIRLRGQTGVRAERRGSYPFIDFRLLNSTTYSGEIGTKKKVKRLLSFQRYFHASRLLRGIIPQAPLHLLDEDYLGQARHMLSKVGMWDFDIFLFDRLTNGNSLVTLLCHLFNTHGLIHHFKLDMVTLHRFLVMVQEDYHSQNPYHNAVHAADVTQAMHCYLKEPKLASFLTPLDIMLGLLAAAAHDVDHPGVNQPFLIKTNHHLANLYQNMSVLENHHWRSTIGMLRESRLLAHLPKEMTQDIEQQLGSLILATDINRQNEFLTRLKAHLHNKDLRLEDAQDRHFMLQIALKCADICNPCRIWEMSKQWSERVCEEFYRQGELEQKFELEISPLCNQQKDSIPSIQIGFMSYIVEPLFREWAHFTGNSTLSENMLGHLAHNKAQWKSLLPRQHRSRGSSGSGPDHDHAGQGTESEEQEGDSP
Description: as §1

PDE8A = biological target: T9, PDE8A (Homo sapiens, UniProt O60658)
T9 construct: full-length, Sf9 cell-free extract
T9 sequence (O60658 whole entry): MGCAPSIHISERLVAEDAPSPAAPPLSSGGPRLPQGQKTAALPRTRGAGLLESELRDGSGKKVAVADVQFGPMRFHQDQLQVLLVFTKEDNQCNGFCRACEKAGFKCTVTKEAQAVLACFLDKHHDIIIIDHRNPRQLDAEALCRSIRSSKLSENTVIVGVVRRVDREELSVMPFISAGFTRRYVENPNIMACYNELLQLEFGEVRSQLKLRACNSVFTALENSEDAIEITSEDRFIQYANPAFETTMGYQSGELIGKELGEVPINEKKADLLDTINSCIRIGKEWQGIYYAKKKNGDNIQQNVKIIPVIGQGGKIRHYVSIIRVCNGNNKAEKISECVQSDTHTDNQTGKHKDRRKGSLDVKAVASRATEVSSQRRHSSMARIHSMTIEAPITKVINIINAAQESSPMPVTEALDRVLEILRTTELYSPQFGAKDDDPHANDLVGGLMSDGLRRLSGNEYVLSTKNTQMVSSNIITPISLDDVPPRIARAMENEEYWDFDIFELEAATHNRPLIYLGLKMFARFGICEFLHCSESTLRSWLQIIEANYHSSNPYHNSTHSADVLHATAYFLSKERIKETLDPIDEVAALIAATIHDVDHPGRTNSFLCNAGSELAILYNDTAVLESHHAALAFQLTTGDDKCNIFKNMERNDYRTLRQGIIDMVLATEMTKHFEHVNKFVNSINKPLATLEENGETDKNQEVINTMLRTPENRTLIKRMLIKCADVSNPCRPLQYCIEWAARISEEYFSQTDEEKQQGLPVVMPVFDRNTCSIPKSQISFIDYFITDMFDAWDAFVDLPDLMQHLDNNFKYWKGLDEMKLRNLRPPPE
Description: as §1

PDE9A = biological target: T10, PDE9A (Homo sapiens, UniProt O76083)
T10 construct: full-length, Sf9 cell-free extract
T10 sequence (O76083 whole entry): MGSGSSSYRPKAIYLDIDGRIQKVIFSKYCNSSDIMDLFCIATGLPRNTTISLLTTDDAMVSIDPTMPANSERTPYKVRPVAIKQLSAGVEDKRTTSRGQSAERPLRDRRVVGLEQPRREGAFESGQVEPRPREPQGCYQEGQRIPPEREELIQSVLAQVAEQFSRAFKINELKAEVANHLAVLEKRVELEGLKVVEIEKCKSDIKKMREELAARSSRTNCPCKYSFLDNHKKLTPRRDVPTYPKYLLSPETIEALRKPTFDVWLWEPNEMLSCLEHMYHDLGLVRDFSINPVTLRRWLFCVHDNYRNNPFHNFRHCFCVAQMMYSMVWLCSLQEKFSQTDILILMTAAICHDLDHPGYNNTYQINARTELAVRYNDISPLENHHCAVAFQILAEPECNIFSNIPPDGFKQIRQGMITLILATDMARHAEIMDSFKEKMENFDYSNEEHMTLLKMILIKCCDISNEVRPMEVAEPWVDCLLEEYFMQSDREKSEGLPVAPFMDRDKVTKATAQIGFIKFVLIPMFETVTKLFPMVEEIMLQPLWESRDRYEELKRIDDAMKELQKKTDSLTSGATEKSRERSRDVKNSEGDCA
Description: as §1

IC50 (PDE10A): 49.8 nM
IC50 (PDE11A): 1000 nM
IC50 (PDE2A): 785 nM
IC50 (PDE3A): 0.023 nM
IC50 (PDE3B): 0.05 nM
IC50 (PDE5): 870 nM
IC50 (PDE6): 1200 nM
IC50 (PDE7B): > 10 µM
IC50 (PDE8A): 8 µM
IC50 (PDE9A): > 10 µM
SMILES: COc1cc2c(cc1OC)-c1c/c(=N\c3c(C)cc(C)cc3C)n(C)c(=O)n1CC2 [trequinsin]
